Source: ChEMBL document CHEMBL4219265, “Piperlongumine derivative, CG-06, inhibits STAT3 activity by direct binding to STAT3 and regulating the reactive oxygen species in DU145 prostate carcinoma cells” (Bioorg Med Chem Lett, 2018)

Key:
PC-3 = experiment: Growth inhibition of human PC3 cells after 48 hrs by WST-1 assay; type: functional; settings: PC-3, 48 h
LNCaP [1] = experiment: Growth inhibition of human LNCAP cells after 48 hrs by WST-1 assay; type: functional
[2] = target: T1, Signal transducer and activator of transcription 3 (Homo sapiens, UniProt P40763); experiment: Inhibition of STAT3 (unknown origin) expressed in human HCT116 cells after 24 hrs by dual-luciferase reporter gene assay; type: cell-based
[3] = target: T1, Signal transducer and activator of transcription 3; experiment: Inhibition of STAT3 phosphorylation at Tyr705 residues in human DU145 cells at 5 uM after 24 hrs by Western blot analysis; type: cell-based
DU-145 [4] = experiment: Effect on total STAT3 protein level in human DU145 cells assessed as ratio of STAT3 protein level to GAPDH protein level at 0.1 uM after 24 hrs by Western blot analysis (reference value: 1); type: ADME, cell-based; settings: du-145, 24 h
DU-145 [5] = experiment: Effect on total STAT3 protein level in human DU145 cells assessed as ratio of STAT3 protein level to GAPDH protein level at 0.5 uM after 24 hrs by Western blot analysis (reference value: 1); type: ADME, cell-based; settings: du-145, 24 h
DU-145 [6] = experiment: Effect on total STAT3 protein level in human DU145 cells assessed as ratio of STAT3 protein level to GAPDH protein level at 1 uM after 24 hrs by Western blot analysis (reference value: 1); type: ADME, cell-based; settings: du-145, 24 h
[7] = target: T1, Signal transducer and activator of transcription 3; experiment: Inhibition of STAT3 phosphorylation at Tyr705 residues in human DU145 cells assessed as ratio of phosphorylated STAT3 protein level to GAPDH protein level at 5 uM after 1 hr by Western blot analysis (reference value: 1); type: cell-based
[8] = target: T1, Signal transducer and activator of transcription 3; experiment: Inhibition of STAT3 phosphorylation at Tyr705 residues in human DU145 cells assessed as ratio of phosphorylated STAT3 protein level to GAPDH protein level at 5 uM after 3 hrs by Western blot analysis (reference value: 1); type: cell-based
[9] = target: T1, Signal transducer and activator of transcription 3; experiment: Inhibition of STAT3 phosphorylation at Tyr705 residues in human DU145 cells assessed as ratio of phosphorylated STAT3 protein level to GAPDH protein level at 5 uM after 6 hrs by Western blot analysis (reference value: 1); type: cell-based
DU-145 [10] = experiment: Effect on total STAT3 protein level in human DU145 cells assessed as ratio of STAT3 protein level to GAPDH protein level at 5 uM after 0.5 hrs by Western blot analysis (reference value: 1); type: ADME, cell-based; settings: du-145, 0.5 h
DU-145 [11] = experiment: Effect on total STAT3 protein level in human DU145 cells assessed as ratio of STAT3 protein level to GAPDH protein level at 5 uM after 3 hrs by Western blot analysis (reference value: 1); type: ADME, cell-based; settings: du-145, 3 h
DU-145 [12] = experiment: Effect on total STAT3 protein level in human DU145 cells assessed as ratio of STAT3 protein level to GAPDH protein level at 5 uM after 6 hrs by Western blot analysis (reference value: 1); type: ADME, cell-based; settings: du-145, 6 h
[13] = target: T1, Signal transducer and activator of transcription 3; experiment: Inhibition of STAT3 in human DU145 cells assessed as ratio of cyclin D1 protein level to tubulin protein level at 5 uM after 48 hrs by Western blot analysis (reference value: 1); type: cell-based
[14] = target: T1, Signal transducer and activator of transcription 3; experiment: Inhibition of STAT3 in human DU145 cells assessed as ratio of Bcl-2 protein level to tubulin protein level at 5 uM after 48 hrs by Western blot analysis (reference value: 1); type: cell-based
[15] = target: T1, Signal transducer and activator of transcription 3; experiment: Inhibition of STAT3 in human DU145 cells assessed as ratio of PARP protein level to tubulin protein level at 5 uM after 48 hrs by Western blot analysis (reference value: 1); type: cell-based
[16] = target: T1, Signal transducer and activator of transcription 3; experiment: Inhibition of STAT3 phosphorylation in human LNCAP cells assessed as ratio of phosphorylated STAT3 protein level to GAPDH protein level at 5 uM after 12 hrs by Western blot analysis (reference value: 1); type: cell-based
LNCaP [17] = experiment: Effect on total STAT3 protein level in IL-6 stimulated human LNCAP cells assessed as ratio of STAT3 protein level to GAPDH protein level at 5 uM preincubated for 12 hrs followed by IL-6 stimulation for 30 mins by Western blot analysis (reference value: 1.3); type: ADME, cell-based; settings: 0.5 h
DU-145 [18] = experiment: Cell cycle arrest in human DU145 cells assessed as accumulation at S phase at 5 uM after 12 hrs by flow cytometry (reference value: 6.6%); type: functional
DU-145 [19] = experiment: Cell cycle arrest in human DU145 cells assessed as accumulation at G0/G1 phase at 5 uM after 24 hrs by flow cytometry (reference value: 24.07%); type: functional
DU-145 [20] = experiment: Cell cycle arrest in human DU145 cells assessed as accumulation at S phase at 5 uM after 24 hrs by flow cytometry (reference value: 6.6%); type: functional
DU-145 [21] = experiment: Induction of apoptosis in human DU145 cells at 5 uM after 48 hrs by flow cytometry (reference value: 0.61%); type: functional
[22] = target: T1, Signal transducer and activator of transcription 3; experiment: Binding affinity to STAT3 in human DU145 cell lysates assessed as reduction in pronase-induced STAT3 digestion by measuring ratio of STAT3 protein level to GAPDH protein level at 50 uM incubated for 1 hr followed by 0.005% pronase addition for 10 mins by Western blot analysis (reference value: 0.9)
[23] = target: T1, Signal transducer and activator of transcription 3; experiment: Binding affinity to STAT3 in human DU145 cell lysates assessed as reduction in pronase-induced STAT3 digestion by measuring ratio of STAT3 protein level to GAPDH protein level at 50 uM incubated for 1 hr followed by 0.05% pronase addition for 10 mins by Western blot analysis (reference value: 0.4)
[24] = target: T1, Signal transducer and activator of transcription 3; experiment: Stabilization of STAT3 in human DU145 cell lysates by measuring ratio of STAT3 protein level to GAPDH protein level at 50 uM incubated for 1 hr in absence of pronase by Western blot analysis (reference value: 1)
[25] = target: T1, Signal transducer and activator of transcription 3; experiment: Binding affinity to STAT3 in human DU145 cell lysates assessed as reduction in pronase-induced STAT3 digestion by measuring ratio of STAT3 protein level to GAPDH protein level at 1 uM incubated for 1 hr followed by 0.05% pronase addition for 10 mins by Western blot analysis (reference value: 1)
[26] = target: T1, Signal transducer and activator of transcription 3; experiment: Inhibition of STAT3-induced ERK1/2 phosphorylation in human DU145 cells assessed as ratio of phosphorylated ERK1/2 protein level to GAPDH protein level at 5 uM after 1 hr by Western blot analysis (reference value: 1); type: cell-based
DU-145 [27] = experiment: Effect on total ERK1/2 protein level in human DU145 cells assessed as ratio of ERK1/2 protein level to GAPDH protein level at 5 uM after 0.5 hrs by Western blot analysis (reference value: 1); type: ADME, cell-based; settings: du-145, 0.5 h
DU-145 [28] = experiment: Effect on total ERK1/2 protein level in human DU145 cells assessed as ratio of ERK1/2 protein level to GAPDH protein level at 5 uM after 3 hrs by Western blot analysis (reference value: 1); type: ADME, cell-based; settings: du-145, 3 h
DU-145 [29] = experiment: Effect on total STAT3 protein level in human DU145 cells assessed as ratio of ERK1/2 protein level to GAPDH protein level at 5 uM preincubated with NAC for 1 hr followed by compound addition for 1 hr by Western blot analysis (reference value: 1); type: ADME, cell-based; settings: du-145, 1 h

T1 sequence (P40763 whole entry): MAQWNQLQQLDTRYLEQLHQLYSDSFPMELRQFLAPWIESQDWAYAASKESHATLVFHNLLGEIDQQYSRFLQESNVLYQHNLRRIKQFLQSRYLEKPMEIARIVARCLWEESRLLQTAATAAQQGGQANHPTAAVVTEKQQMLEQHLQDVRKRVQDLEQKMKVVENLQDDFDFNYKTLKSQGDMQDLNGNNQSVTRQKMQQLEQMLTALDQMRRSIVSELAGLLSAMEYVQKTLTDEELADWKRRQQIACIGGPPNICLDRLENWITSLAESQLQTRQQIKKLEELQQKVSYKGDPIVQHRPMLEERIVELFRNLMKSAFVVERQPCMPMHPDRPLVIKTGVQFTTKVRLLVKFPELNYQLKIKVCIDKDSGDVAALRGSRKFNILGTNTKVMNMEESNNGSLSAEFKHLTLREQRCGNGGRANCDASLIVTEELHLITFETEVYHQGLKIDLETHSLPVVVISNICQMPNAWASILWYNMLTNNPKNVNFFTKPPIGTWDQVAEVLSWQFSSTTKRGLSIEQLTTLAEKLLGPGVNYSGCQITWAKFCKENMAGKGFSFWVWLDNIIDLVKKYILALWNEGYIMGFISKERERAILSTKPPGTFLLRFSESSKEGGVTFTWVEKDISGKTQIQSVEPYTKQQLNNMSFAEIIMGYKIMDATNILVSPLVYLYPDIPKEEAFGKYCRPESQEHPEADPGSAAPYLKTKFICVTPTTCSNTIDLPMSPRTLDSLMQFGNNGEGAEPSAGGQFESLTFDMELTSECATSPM

GI50 (PC-3): > 10 µM | GI50 (LNCaP [1]): 7.7 µM | IC50 [2]: 10 µM | inhibition [2]: Dose-dependent effect | inhibition [3]: > 70% | Ratio (DU-145 [4]): 1.1 | Ratio (DU-145 [5]): 1.1 | Ratio (DU-145 [6]): 1.1 | Ratio [7]: 0.3 | Ratio [8]: 0.2 | Ratio [9]: 0.2 | Ratio (DU-145 [10]): 1 | Ratio (DU-145 [11]): 1 | Ratio (DU-145 [12]): 1 | Ratio [13]: 0.9 | Ratio [14]: 0.7 | Ratio [15]: 0.3 to 0.6 | Ratio [16]: 1 | Ratio (LNCaP [17]): 1.1 | Ratio [22]: 0.8 | Ratio [23]: 0.5 | Ratio [24]: 1 | Ratio [25]: 1.1 | Ratio [26]: 1.8 | Ratio (DU-145 [27]): 1.1 | Ratio (DU-145 [28]): 1.1 | Ratio (DU-145 [29]): 0.7
Compound: C=C(C)C(=O)N(Cc1ccc(Br)cc1)C(=O)/C=C/c1cc(OC)c(OC)c(OC)c1
Activity (DU-145 [18]): 8.76% | Activity (DU-145 [19]): 34.79% | Activity (DU-145 [20]): 8.27% | Activity (DU-145 [21]): 7.61%
